Reference: ChEMBL document CHEMBL1131031, “Indolequinone antitumor agents: reductive activation and elimination from (5-methoxy-1-methyl-4,7-dioxoindol-3-yl)methyl derivatives and hypoxia-selective cytotoxicity in vitro” (J Med Chem, 1998)

Assays:
[1] = In vitro cytotoxicity against hypoxic V79-379A cells determined by MTT assay in the presence of nitrogen; format: functional, cell-based; settings: Cricetulus griseus
[2] = In vitro cytotoxicity against […] V79-379A cells determined by MTT assay in the presence of air; format: functional, cell-based; settings: Cricetulus griseus

SMILES	IC50 [1]	IC50 [2]
COC1=CC(=O)c2c(c(COC(=O)c3ccccc3F)cn2C)C1=O	0.04 µM	0.5 µM
COC1=CC(=O)c2c(c(COC(=O)c3ccc(F)cc3)cn2C)C1=O	0.05 µM	0.7 µM
COC1=CC(=O)c2c(c(COC(=O)c3ccccc3)cn2C)C1=O	0.04 µM	1.4 µM
COC1=CC(=O)c2c(c(CCl)cn2C)C1=O	33 µM	304 µM
COC1=CC(=O)c2c(c(COC(=O)c3ccc(F)cc3)c(C)n2C)C1=O	0.3 µM	27 µM
COC1=CC(=O)c2c(c(CO)cn2C)C1=O	240 µM	220 µM
COC1=CC(=O)c2c(c(COC(N)=O)c(C)n2C)C1=O	0.3 µM	25 µM
COC1=CC(=O)c2c(c(COc3ccc(F)cc3)c(C)n2C)C1=O	0.85 µM	31 µM
COC1=CC(=O)c2c(c(Cc3ccc(O)c(F)c3)c(C)n2C)C1=O	280 µM	470 µM
COC1=CC(=O)c2c(c(CO)c(C)n2C)C1=O	285 µM	1080 µM
COC1=CC(=O)c2c(c(COC(N)=O)cn2C)C1=O	0.04 µM	3 µM
COC1=CC(=O)c2c(c(COc3cccc(NC(C)=O)c3)c(C)n2C)C1=O	0.04 µM	3.7 µM
COC1=CC(=O)c2c(c(COC(=O)Cc3ccc(-c4ccccc4)cc3)c(C)n2C)C1=O	0.66 µM	14.1 µM
COC1=CC(=O)c2c(c(COc3c(Cl)cc(Cl)cc3Cl)cn2C)C1=O	0.08 µM	0.7 µM
COC1=CC(=O)c2c(c(COc3ccccc3)c(C)n2C)C1=O	0.7 µM	12 µM
COC1=CC(=O)c2c(c(CO)c(C3CC3)n2C)C1=O	820 µM	540 µM
COC1=CC(=O)c2c(c(COC(C)=O)c(C)n2C)C1=O	2.5 µM	27 µM
COC1=CC(=O)c2c(c(Cc3cc(F)ccc3O)c(C)n2C)C1=O	110 µM	200 µM
COC1=CC(=O)c2c(c(COC(=O)c3ccccc3F)c(C)n2C)C1=O	2 µM	164 µM
COC1=CC(=O)c2c(c(COC(=O)c3ccccc3)c(C)n2C)C1=O	0.2 µM	16 µM
COC1=CC(=O)c2c(c(COCc3ccccc3)c(C)n2C)C1=O	410 µM	225 µM
COC1=CC(=O)c2c(c(COC(=O)c3ccccc3)c(C3CC3)n2C)C1=O	1 µM	198 µM
CCOC(=S)SCc1c2c(n(C)c1C)C(=O)C=C(OC)C2=O	3 µM	67 µM
